How the values were obtained:
Experiment in all cases: SILAC LC-MS ABPP
Format in all cases: cell-based
Details in all cases: 25 μM 2 h, live DM93 cells
O95163 = target: T1, O95163 (Homo sapiens, UniProt O95163)
T1 construct: endogenous in cells; host or cells: DM93 cells (SILAC)
In short: (§1)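 Ligand engagement is measured as loss of HHS-475 probe labelling at specific tyrosines. SILAC DM93 melanoma cells were treated in situ (25 μM ligand vs DMSO, 2 h, 37 °C; then 100 μM probe, 2 h), and modified peptides were quantified by high-resolution LC-MS/MS after desthiobiotin tagging and avidin capture.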

P52597 = target: T2, P52597 (Homo sapiens, UniProt P52597)
T2 construct: endogenous in cells; host or cells: DM93 cells (SILAC)
In short: as §1

P60900 = target: T3, P60900 (Homo sapiens, UniProt P60900)
T3 construct: endogenous in cells; host or cells: DM93 cells (SILAC)
In short: as §1

Q01082 = target: T4, Q01082 (Homo sapiens, UniProt Q01082)
T4 construct: performing SuTEx compound screening directly in cells; endogenous in cells; host or cells: DM93 cells (SILAC)
In short: as §1

Q14847 = target: T5, Q14847 (Homo sapiens, UniProt Q14847)
T5 construct: performing SuTEx compound screening directly in cells; endogenous in cells; host or cells: DM93 cells (SILAC), soluble fraction
In short: as §1

P50502 = target: T6, P50502 (Homo sapiens, UniProt P50502)
T6 construct: endogenous in cells; host or cells: DM93 cells (SILAC)
In short: as §1

P61326 = target: T7, P61326 (Homo sapiens, UniProt P61326)
T7 construct: performing SuTEx compound screening directly in cells; endogenous in cells; host or cells: DM93 cells (SILAC)
In short: as §1

P62847 = target: T8, P62847 (Homo sapiens, UniProt P62847)
T8 construct: performing SuTEx compound screening directly in cells; endogenous in cells; host or cells: DM93 cells (SILAC)
In short: as §1

Q13107 = target: T9, Q13107 (Homo sapiens, UniProt Q13107)
T9 construct: performing SuTEx compound screening directly in cells; endogenous in cells; host or cells: DM93 cells (SILAC), soluble fraction
In short: as §1

Q15654 = target: T10, Q15654 (Homo sapiens, UniProt Q15654)
T10 construct: performing SuTEx compound screening directly in cells; endogenous in cells; host or cells: DM93 cells (SILAC), soluble fraction
In short: as §1

P31948 = target: T11, P31948 (Homo sapiens, UniProt P31948)
T11 construct: endogenous in cells; host or cells: DM93 (SILAC)
In short: as §1

Q9BUJ2 = target: T12, Q9BUJ2 (Homo sapiens, UniProt Q9BUJ2)
T12 construct: endogenous in cells; host or cells: DM93 cells (SILAC), treated live; soluble proteome analysed
In short: as §1

P18669 = target: T13, P18669 (Homo sapiens, UniProt P18669)
T13 construct: endogenous in cells; host or cells: DM93 (SILAC)
In short: as §1

O14777 = target: T14, O14777 (Homo sapiens, UniProt O14777)
T14 construct: endogenous in cells; host or cells: DM93
In short: as §1

P50749 = target: T15, P50749 (Homo sapiens, UniProt P50749)
T15 construct: Probe-modified proteins from the soluble fraction were conjugated to a desthiobiotin-azide tag; endogenous in cells; host or cells: DM93 cells (SILAC)
In short: as §1

Q13011 = target: T16, Q13011 (Homo sapiens, UniProt Q13011)
T16 construct: performing SuTEx compound screening directly in cells; endogenous in cells; host or cells: DM93 cells (SILAC)
In short: as §1

Q6NZY4 = target: T17, Q6NZY4 (Homo sapiens, UniProt Q6NZY4)
T17 construct: endogenous in cells; host or cells: DM93 cells (SILAC), live-cell treatment
In short: as §1

Q9BPW8 = target: T18, Q9BPW8 (Homo sapiens, UniProt Q9BPW8)
T18 construct: endogenous in cells; host or cells: DM93 cells (SILAC), treated live; soluble proteome analysed
In short: as §1

T2 sequence (P52597 whole entry): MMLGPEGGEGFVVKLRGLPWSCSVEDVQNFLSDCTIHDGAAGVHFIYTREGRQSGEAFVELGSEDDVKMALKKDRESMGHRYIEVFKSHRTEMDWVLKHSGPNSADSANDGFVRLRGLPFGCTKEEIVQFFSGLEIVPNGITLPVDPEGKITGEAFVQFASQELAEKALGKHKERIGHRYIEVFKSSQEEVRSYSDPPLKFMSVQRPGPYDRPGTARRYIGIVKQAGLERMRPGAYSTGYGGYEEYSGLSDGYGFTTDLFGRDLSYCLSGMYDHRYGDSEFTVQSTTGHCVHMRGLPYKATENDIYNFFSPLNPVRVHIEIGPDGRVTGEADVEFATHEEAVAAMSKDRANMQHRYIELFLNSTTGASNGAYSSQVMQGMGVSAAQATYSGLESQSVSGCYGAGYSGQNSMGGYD
T10 sequence (Q15654 whole entry): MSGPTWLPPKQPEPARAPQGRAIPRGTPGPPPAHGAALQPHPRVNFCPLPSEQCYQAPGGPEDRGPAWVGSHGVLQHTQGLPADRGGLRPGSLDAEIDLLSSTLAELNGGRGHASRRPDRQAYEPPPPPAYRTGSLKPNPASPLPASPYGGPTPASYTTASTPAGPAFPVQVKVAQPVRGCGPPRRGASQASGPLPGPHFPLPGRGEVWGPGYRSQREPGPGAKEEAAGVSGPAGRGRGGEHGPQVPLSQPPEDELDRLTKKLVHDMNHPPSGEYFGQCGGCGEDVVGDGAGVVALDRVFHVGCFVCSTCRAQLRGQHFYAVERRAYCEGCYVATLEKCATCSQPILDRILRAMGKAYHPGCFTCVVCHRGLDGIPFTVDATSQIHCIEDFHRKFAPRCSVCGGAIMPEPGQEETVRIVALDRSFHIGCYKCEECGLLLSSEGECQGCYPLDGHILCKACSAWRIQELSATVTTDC
T12 sequence (Q9BUJ2 whole entry): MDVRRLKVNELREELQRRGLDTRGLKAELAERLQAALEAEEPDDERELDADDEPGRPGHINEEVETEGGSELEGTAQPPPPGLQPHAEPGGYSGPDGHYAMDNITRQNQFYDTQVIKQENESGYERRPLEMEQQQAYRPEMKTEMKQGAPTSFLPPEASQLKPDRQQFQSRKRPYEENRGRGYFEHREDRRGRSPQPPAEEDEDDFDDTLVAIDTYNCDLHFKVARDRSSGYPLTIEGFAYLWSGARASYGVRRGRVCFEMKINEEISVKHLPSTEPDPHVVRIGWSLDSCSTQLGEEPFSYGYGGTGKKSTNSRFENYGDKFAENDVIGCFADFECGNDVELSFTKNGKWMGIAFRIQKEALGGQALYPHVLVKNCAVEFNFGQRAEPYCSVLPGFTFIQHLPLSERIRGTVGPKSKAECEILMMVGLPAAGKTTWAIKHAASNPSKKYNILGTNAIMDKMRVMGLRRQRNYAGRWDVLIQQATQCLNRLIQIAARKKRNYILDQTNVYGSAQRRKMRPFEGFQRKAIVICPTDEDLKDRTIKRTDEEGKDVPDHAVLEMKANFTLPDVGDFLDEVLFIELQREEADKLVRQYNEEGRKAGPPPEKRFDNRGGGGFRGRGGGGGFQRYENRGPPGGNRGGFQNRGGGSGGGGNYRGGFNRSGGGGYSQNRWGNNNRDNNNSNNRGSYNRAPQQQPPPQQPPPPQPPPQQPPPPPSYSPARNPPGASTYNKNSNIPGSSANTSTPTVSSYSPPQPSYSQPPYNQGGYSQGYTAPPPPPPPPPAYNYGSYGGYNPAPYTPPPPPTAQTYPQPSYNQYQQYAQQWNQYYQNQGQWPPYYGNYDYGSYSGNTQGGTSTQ
T13 sequence (P18669 whole entry): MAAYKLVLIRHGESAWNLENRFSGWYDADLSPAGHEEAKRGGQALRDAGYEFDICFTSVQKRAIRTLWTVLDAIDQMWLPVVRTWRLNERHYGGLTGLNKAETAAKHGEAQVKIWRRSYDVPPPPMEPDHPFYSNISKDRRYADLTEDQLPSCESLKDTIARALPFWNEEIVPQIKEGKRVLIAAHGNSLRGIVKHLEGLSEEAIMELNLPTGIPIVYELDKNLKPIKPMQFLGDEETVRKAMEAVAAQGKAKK
T1 sequence (O95163 whole entry): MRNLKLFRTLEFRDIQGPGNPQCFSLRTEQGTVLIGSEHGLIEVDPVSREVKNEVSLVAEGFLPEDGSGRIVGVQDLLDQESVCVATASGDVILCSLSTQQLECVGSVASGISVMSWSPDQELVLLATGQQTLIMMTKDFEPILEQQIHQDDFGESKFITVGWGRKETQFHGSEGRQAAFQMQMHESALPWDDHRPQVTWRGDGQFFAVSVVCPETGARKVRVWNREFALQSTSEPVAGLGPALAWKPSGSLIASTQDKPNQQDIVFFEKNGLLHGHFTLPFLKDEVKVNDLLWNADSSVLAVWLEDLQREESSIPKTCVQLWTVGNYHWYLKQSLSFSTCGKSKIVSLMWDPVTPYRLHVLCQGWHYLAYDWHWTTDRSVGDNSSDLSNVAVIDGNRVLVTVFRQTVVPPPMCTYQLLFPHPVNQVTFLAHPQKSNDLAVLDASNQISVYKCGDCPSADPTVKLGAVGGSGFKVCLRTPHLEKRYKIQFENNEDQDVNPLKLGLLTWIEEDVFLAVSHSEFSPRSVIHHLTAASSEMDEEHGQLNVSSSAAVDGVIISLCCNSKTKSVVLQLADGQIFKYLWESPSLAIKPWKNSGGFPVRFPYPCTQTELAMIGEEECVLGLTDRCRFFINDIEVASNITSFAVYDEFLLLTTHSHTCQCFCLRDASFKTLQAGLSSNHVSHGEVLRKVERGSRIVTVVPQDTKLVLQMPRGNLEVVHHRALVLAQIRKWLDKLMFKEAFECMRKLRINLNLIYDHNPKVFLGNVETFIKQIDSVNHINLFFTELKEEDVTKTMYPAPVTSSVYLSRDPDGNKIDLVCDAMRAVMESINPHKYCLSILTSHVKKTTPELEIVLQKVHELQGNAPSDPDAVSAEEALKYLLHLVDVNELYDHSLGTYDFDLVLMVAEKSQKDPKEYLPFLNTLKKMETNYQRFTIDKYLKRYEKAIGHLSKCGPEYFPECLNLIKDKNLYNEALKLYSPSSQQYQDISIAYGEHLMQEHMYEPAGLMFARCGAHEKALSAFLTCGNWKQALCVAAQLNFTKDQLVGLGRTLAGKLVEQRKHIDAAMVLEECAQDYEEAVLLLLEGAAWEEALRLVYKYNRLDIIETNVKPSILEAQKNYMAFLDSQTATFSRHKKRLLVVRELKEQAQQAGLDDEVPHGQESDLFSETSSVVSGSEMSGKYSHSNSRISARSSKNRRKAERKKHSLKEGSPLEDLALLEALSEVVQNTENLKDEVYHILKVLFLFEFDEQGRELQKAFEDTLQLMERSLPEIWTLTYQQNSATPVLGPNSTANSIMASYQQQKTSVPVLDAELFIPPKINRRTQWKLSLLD
T16 sequence (Q13011 34-328): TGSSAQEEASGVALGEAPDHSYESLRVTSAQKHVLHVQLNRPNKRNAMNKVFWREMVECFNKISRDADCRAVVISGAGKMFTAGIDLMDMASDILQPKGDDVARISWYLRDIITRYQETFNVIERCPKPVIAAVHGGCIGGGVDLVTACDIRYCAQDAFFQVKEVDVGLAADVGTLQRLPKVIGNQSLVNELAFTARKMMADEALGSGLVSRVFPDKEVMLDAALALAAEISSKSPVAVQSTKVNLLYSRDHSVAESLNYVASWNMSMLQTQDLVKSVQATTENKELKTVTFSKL
T5 sequence (Q14847 whole entry): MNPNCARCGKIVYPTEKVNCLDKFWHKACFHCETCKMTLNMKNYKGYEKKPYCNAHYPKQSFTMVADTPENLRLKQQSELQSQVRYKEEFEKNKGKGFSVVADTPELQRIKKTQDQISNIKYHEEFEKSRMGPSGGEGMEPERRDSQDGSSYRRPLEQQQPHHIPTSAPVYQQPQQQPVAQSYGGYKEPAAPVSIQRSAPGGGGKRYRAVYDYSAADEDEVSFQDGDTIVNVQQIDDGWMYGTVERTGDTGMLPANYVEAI
T18 sequence (Q9BPW8 36-284): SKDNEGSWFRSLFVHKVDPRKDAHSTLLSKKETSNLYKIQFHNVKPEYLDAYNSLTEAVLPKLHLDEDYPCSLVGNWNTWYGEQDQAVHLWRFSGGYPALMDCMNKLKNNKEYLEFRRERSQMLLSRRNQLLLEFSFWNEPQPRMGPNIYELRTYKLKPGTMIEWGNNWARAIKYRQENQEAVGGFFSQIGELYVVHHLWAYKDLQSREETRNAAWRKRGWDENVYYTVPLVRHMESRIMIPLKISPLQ
T14 sequence (O14777 whole entry): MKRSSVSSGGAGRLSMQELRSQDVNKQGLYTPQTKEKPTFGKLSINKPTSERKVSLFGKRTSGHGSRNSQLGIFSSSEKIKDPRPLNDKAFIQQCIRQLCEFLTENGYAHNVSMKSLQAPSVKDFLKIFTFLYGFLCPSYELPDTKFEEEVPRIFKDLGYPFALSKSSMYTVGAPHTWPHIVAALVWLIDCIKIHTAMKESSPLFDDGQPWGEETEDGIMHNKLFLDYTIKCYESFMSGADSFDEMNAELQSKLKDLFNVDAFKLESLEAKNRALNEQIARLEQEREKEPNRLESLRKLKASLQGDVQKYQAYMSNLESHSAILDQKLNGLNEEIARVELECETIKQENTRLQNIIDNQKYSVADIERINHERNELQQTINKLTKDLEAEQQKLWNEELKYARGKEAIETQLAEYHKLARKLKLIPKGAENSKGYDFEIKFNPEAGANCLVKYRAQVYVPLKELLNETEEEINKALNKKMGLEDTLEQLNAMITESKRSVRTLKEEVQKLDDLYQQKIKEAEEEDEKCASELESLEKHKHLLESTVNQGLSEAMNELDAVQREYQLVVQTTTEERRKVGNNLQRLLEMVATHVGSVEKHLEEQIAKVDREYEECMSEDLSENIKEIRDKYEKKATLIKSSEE
T7 sequence (P61326 whole entry): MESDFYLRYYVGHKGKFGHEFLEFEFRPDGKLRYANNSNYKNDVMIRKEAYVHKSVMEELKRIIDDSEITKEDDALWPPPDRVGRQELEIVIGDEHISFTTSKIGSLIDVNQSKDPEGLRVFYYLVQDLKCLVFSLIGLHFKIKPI

**Q.** What does the source list for `O=C(NC1CC1)c1ccc(S(=O)(=O)n2cncn2)cc1` [HHS-0101, 4-((1H-1,2,4-triazol-1-yl)sulfonyl)-N-cyclopropylbenzamide]?
**A.** liganded tyrosine site 957 (O95163): HHS0101.Y|HHS0301.Y|HHS0401.Y (tyrosine sites that showed >80% reductions (SR >5) in probe labeling in cells treated with compounds (liganded sites)); liganded tyrosine site 210 (P52597): HHS0101.Y|HHS0201.Y|HHS0701.Y (tyrosine sites that showed >80% reductions (SR >5) in probe labeling in cells treated with compounds (liganded sites)); liganded tyrosine site 298 (P52597): HHS0101.Y|HHS0701.Y (tyrosine sites that showed >80% reductions (SR >5) in probe labeling in cells treated with compounds (liganded sites)); liganded tyrosine site 103 (P60900): HHS0101.Y|HHS0201.Y|HHS0401.Y (tyrosine sites that showed >80% reductions (SR >5) in probe labeling in cells treated with compounds (liganded sites)); liganded tyrosine site 777 (Q01082): HHS0101.Y|HHS0201.Y|HHS0401.Y (tyrosine sites that showed >80% reductions (SR >5) in probe labeling in cells treated with compounds (liganded sites)); liganded tyrosine site 57 (Q14847): HHS0101.Y (tyrosine sites that showed >80% reductions (SR >5) in probe labeling in cells treated with compounds (liganded sites))

**Q.** For `O=C(NCC1CC1)c1ccc(S(=O)(=O)n2cncn2)cc1` [HHS-0201, 4-((1H-1,2,4-triazol-1-yl)sulfonyl)-N-(cyclopropylmethyl)benzamide], which “liganded tyrosine site 213” value (P50502) is on record?
**A.** The value was “HHS0201.Y (tyrosine sites that showed >80% reductions (SR >5) in probe labeling in cells treated with compounds (liganded sites))”.

**Q.** What about the “liganded tyrosine site 34” value (P61326) of the same compound?
**A.** Its value is “HHS0201.Y (tyrosine sites that showed >80% reductions (SR >5) in probe labeling in cells treated with compounds (liganded sites))”.

**Q.** And the “liganded tyrosine site 81” value (P62847)?
**A.** The value was “HHS0201.Y (tyrosine sites that showed >80% reductions (SR >5) in probe labeling in cells treated with compounds (liganded sites))”.

**Q.** What about the “liganded tyrosine site 192” value (Q13107) of the same compound?
**A.** Its value is “HHS0201.Y|HHS0301.Y (tyrosine sites that showed >80% reductions (SR >5) in probe labeling in cells treated with compounds (liganded sites))”.

**Q.** What about the “liganded tyrosine site 157” value (Q15654) of the same compound?
**A.** Its value is “HHS0201.Y (tyrosine sites that showed >80% reductions (SR >5) in probe labeling in cells treated with compounds (liganded sites))”.

**Q.** What does the source list for `O=C(NC1CCCCC1)c1ccc(S(=O)(=O)n2cncn2)cc1` [HHS-0301, 4-((1H-1,2,4-triazol-1-yl)sulfonyl)-N-cyclohexylbenzamide]?
**A.** liganded tyrosine site 134 (P31948): HHS0301.Y (tyrosine sites that showed >80% reductions (SR >5) in probe labeling in cells treated with compounds (liganded sites)); liganded tyrosine site 111 (Q9BUJ2): HHS0301.Y|HHS0701.Y (tyrosine sites that showed >80% reductions (SR >5) in probe labeling in cells treated with compounds (liganded sites))

**Q.** `O=C(NCc1ccccc1)c1ccc(S(=O)(=O)n2cncn2)cc1` [HHS-0401, 4-((1H-1,2,4-triazol-1-yl)sulfonyl)-N-benzylbenzamide] was tested. Which “liganded tyrosine site 119” value (P18669) did it give?
**A.** The value was “HHS0401.Y (tyrosine sites that showed >80% reductions (SR >5) in probe labeling in cells treated with compounds (liganded sites))”.

**Q.** How did the “liganded tyrosine site 310” value (O14777) turn out when `O=C(c1ccc(S(=O)(=O)n2cncn2)cc1)N1CCC(c2ccccc2)CC1` [HHS-0701, (4-((1H-1,2,4-triazol-1-yl)sulfonyl)phenyl)(4-phenylpiperidin-1-yl)methanone] was run?
**A.** The value was “HHS0701.Y (tyrosine sites that showed >80% reductions (SR >5) in probe labeling in cells treated with compounds (liganded sites))”.

**Q.** What about the “liganded tyrosine site 270” value (P50749) of the same compound?
**A.** The value was “HHS0701.Y (tyrosine sites that showed >80% reductions (SR >5) in probe labeling in cells treated with compounds (liganded sites))”.

**Q.** What about the “liganded tyrosine site 149” value (Q13011) of the same compound?
**A.** The value was “HHS0701.Y (tyrosine sites that showed >80% reductions (SR >5) in probe labeling in cells treated with compounds (liganded sites))”.

**Q.** What about the “liganded tyrosine site 258” value (Q6NZY4) of the same compound?
**A.** The value was “HHS0701.Y (tyrosine sites that showed >80% reductions (SR >5) in probe labeling in cells treated with compounds (liganded sites))”.

**Q.** And the “liganded tyrosine site 83” value (Q9BPW8)?
**A.** The value was “HHS0701.Y (tyrosine sites that showed >80% reductions (SR >5) in probe labeling in cells treated with compounds (liganded sites))”.
